Marks after values point to notes of the source that are not given here.
How the values were obtained:
Type in all cases: in vivo, Solanum tuberosum
Umatilla seed-tubers = test: Example 2: etiolated sprout development and tuber quality, Umatilla; details: 4.7 mmol/kg potato tubers, 25 days
Experimental: (§1) Methods: Ten-month-old Ranger Russet, Umatilla and Russet Burbank seed-tubers were taken from 4° C. storage and treated with trans-2-hexenal in 9.2-L glass desiccators as described in Example 1. The tubers were exposed to trans-2-hexenal for 0, 12 and 24 hours at 23° C. at a concentration of 4.7 mmol/kg potato tubers. Regardless of exposure time, all tubers remained enclosed in the chambers for the entire 24 hour period. This was accomplished by introducing the trans-2-hexenal at zero-time (into the 24 hour treatment desiccator) and after 12 hour incubation (into the 12 hour treatment desiccator) through a septum in the top of the closed desiccator. The treated tubers were planted into moistened peat/perlite/soil potting mix and placed in the dark at 24° C. to stimulate sprouting. The experiment was set up in a randomized complete block design (5 replicates) with treatments (3 cultivars×3 exposure times) arranged factorially. Effects of trans-2-hexenal exposure and cultivar on etiolated sprout development and tuber quality were assessed 25 days after removal from the 4° C. storage.

[1] = test system: Russet Burbank seed-tubers; test: Example 2: etiolated sprout development, tuber quality and soluble carbohydrates, Russet Burbank; details: 4.7 mmol/kg potato tubers, 25 days
Experimental: as §1

[2] = test system: Russet Burbank seed-tubers; test: Example 3: etiolated sprout development and tuber quality after 28 days; details: 0.96 mmol/kg, 12 hours at 23° C.; 28 days at 15° C.
Experimental: Methods: Eleven-month-old Russet Burbank seed-tubers were taken from a 4° C. storage area and treated with 250 μL of trans-2-hexenal in a 9.2 liter (L) glass desiccator (0.96 mmol/kg potato tubers) for 12 hours at 23° C. The trans-2-hexenal was pipetted onto Whatman #1 filter paper in a glass petri dish (5.5 cm diameter) inside the desiccator. Control tubers were enclosed in a desiccator without trans-2-hexenal. Following treatment, the tubers were enclosed in 1 L […] chambers (3 tubers per chamber) that were placed at 15° C. A continuous airflow (approximately 80 mL/min; 21% O2, 79% N2) was established around the tubers through inlet and outlet ports in the lid of each chamber. Respiration rates were determined at four hour intervals over a 28 day storage period by quantifying CO2 in the outflow from each chamber with a LI-COR model 6262 infra-red gas analyzer (LI-COR Inc., Lincoln Nebr.). The experiment was set up in a randomized complete block design (5 replicates) with two treatments (control and trans-2-hexenal-treated). The effect of trans-2-hexenal exposure on the development of etiolated sprouts was assessed 28 days after removal from the 4° C. storage.

[3] = test system: Russet Burbank seed tubers; test: Example 4: sprout inhibition by aldehyde vapors, 26 days of sprouting; details: for Average Sprout Length / External Pit Rating (1-4 scale) / Sprout Fresh Weight: 12 hours vapor, 26 days at 18° C.
Experimental: Methods: Eleven-month-old Russet Burbank seed tubers were taken from a 4° C. storage area and exposed to trans-2-hexenal (0.6-4.3 mmol/kg), trans-2-heptenal (0.6-3.8 mmol/kg) and trans-2-octenal (0.5-2.5 mmol/kg) vapors separately in 3.9 L glass containers for 12 hours at 23° C. The aldehydes were applied to filter paper inside petri dishes within each jar. Control tubers were enclosed in a glass container without any aldehyde. Sprouts were ‘peeping’ (approximately 3 mm in length) at the time of treatment. Following treatment, tubers were placed at 18° C. (95% relative humidity) in the dark to sprout for 26 days. The experiment was set up in a randomized complete block design (5 replicates) with chemicals and concentrations arranged factorially. Effects of the aliphatic aldehydes on the development of etiolated sprouts were documented at 20 days (photographically) and 26 days of sprouting.

CCC/C=C/C=O [trans-2-hexenal]
Average Sprout Length (Umatilla seed-tubers; 12 h exposure): 0 cm/tuber
External Pit Rating (1-4 scale) (Umatilla seed-tubers; 12 h exposure): 3.7
Soft Rot Lesions (Umatilla seed-tubers; 12 h exposure): 2.2 no/tuber
Sprout Fresh Weight (Umatilla seed-tubers; 12 h exposure): 0 g/tuber
Average Sprout Length (Umatilla seed-tubers; 24 h exposure): 0 cm/tuber
External Pit Rating (1-4 scale) (Umatilla seed-tubers; 24 h exposure): 4.0
Soft Rot Lesions (Umatilla seed-tubers; 24 h exposure): 2.6 no/tuber
Sprout Fresh Weight (Umatilla seed-tubers; 24 h exposure): 0 g/tuber
Average Sprout Length ([1]; 12 h exposure): 0 cm/tuber
External Pit Rating (1-4 scale) ([1]; 12 h exposure): 1.8
Soft Rot Lesions ([1]; 12 h exposure): 0.6 no/tuber
Soluble Carbohydrates Fru ([1]; 12 h exposure): 19.5 mg/g dry wt.
Soluble Carbohydrates Glu ([1]; 12 h exposure): 19.0 mg/g dry wt.
Soluble Carbohydrates Glu + Fru ([1]; 12 h exposure): 38.5 mg/g dry wt.
Soluble Carbohydrates Suc ([1]; 12 h exposure): 6.30 mg/g dry wt.
Sprout Fresh Weight ([1]; 12 h exposure): 0 g/tuber
Average Sprout Length ([1]; 24 h exposure): 0 cm/tuber
External Pit Rating (1-4 scale) ([1]; 24 h exposure): 2.2
Soft Rot Lesions ([1]; 24 h exposure): 0.4 no/tuber
Soluble Carbohydrates Fru ([1]; 24 h exposure): 17.8 mg/g dry wt.
Soluble Carbohydrates Glu ([1]; 24 h exposure): 16.5 mg/g dry wt.
Soluble Carbohydrates Glu + Fru ([1]; 24 h exposure): 34.3 mg/g dry wt.
Soluble Carbohydrates Suc ([1]; 24 h exposure): 6.28 mg/g dry wt.
Sprout Fresh Weight ([1]; 24 h exposure): 0 g/tuber
Average Sprout Length [2]: 0** cm/tuber
Sprout fresh wt [2]: 0** g/tuber
Tuber external pit rating [2]: 2.2**
Tuber fresh wt loss [2]: 11.8** g/tuber
Average Sprout Length ([3]; 0.63 mmol/kg): 0.2 cm/tuber
External Pit Rating (1-4 scale) ([3]; 0.63 mmol/kg): 1.4
Sprout Fresh Weight ([3]; 0.63 mmol/kg): 0.04 g/tuber
Average Sprout Length ([3]; 1.33 mmol/kg): 0 cm/tuber
External Pit Rating (1-4 scale) ([3]; 1.33 mmol/kg): 2.0
Sprout Fresh Weight ([3]; 1.33 mmol/kg): 0 g/tuber
Average Sprout Length ([3]; 2.06 mmol/kg): 0 cm/tuber
External Pit Rating (1-4 scale) ([3]; 2.06 mmol/kg): 2.6
Sprout Fresh Weight ([3]; 2.06 mmol/kg): 0 g/tuber
Average Sprout Length ([3]; 2.50 mmol/kg): 0 cm/tuber
External Pit Rating (1-4 scale) ([3]; 2.50 mmol/kg): 3.5
Sprout Fresh Weight ([3]; 2.50 mmol/kg): 0 g/tuber
Average Sprout Length ([3]; 4.34 mmol/kg): 0 cm/tuber
External Pit Rating (1-4 scale) ([3]; 4.34 mmol/kg): 2.8
Sprout Fresh Weight ([3]; 4.34 mmol/kg): 0 g/tuber
external pitting (in words) ([3]; lowest concentration): minimal
